Test results from US20250171451A1, “NOVEL HETEROCYCLIC COMPOUND AND PHARMACEUTICAL COMPOSITION COMPRISING SAME” (Samjin Pharmaceutical Co., Ltd., priority 2022, published 2025).

How the values were obtained:
[1] = system: TEAD response element (TRE) luciferase reporter in MCF-7 cell lines; test: TEAD response element (TRE) reporter assay; assay type: cell-based; conditions: Homo sapiens, MCF7; 0.2 μM compound, 24 hours, MCF-7 TEAD reporter cells, relative to vehicle (1% DMSO)
Experimental: MCF-7 cell lines injected with TEAD reporter genes expressing firefly luciferase upon activation of TEAD response element (TRE) were obtained from BPS bioscience (#60618). The TEAD reporter genes were injected to stable expression in the MCF-7 cell lines.
TEAD reporter genes expressing firefly luciferase upon activation of TEAD response element (TRE) were injected with TEAD reporter genes to ensure stable expression of the TEAD reporter genes. Here, the TEAD reporter genes expresses firefly luciferase upon activation of TEAD response element (TRE). The cells were cultured in a cell-only culture medium (BPS bioscience) to which 10 μg/mL insulin (Sigma) was added at 37° C. and 5% CO2.
In 24 hours after dispensing said cells into a 96-well plate, each of the compounds of the examples or a vehicle solvent (final 1% DMSO) was treated by being diluted with a serum-free culture medium so that the final concentration became 0.2 μM. In 24 hours after said treatment, a luciferase assay working solution (ONE-Step Luciferase assay reagent; BPS bioscience) containing a luciferase substrate was treated in each well at 100 μL, and then left in a shaker for 15 minutes to be well mixed. Then, a degree of luminescence generated by luciferase expressed according to TEAD activation was measured by a microplate reader (TECAN). A relative activity of luciferase […], and the results are shown in table 8 below.

[2] = target: T1, recombinant GST-TEAD1 proteins (209 to 426 a.a.) (Homo sapiens, UniProt P28347); test: Evaluation of palmitoylation of TEAD protein; assay type: biochemical; conditions: 5 μM compound, 15 minutes preincubation, 3 μM alkyne palmitoyl-CoA 30 minutes, pH 6.4, vs DMSO control
T1 construct: recombinant GST-TEAD1 proteins (209 to 426 a.a.)
T1 sequence (P28347 209-426): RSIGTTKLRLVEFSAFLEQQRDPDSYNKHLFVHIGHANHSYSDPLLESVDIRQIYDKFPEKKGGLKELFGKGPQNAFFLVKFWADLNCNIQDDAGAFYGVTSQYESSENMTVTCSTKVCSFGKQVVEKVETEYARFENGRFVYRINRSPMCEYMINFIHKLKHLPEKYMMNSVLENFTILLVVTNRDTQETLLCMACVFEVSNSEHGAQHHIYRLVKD
Experimental: Each compound corresponding to a concentration of 5 μM was added to recombinant GST-TEAD1 proteins (209 to 426 a.a.) and cultured for 15 minutes. For an autopalmitoylation reaction of proteins after culturing, 3 μM alkyne palmitoyl-CoA (Cayman chemical) and 50 mM MES buffer (pH 6.4) were added and cultured for 30 minutes, after which 1% of sodium dodecyl sulfate (SDS) was added to stop the reaction. After that, biotinylation was performed through a CLICK (Click chemistry tools) reaction, and then a protein solution was concentrated to prepare a sample.
Analysis of the sample was performed using SDS-PAGE and streptavidin HRP (Thermo scientific). The resulting values were quantified using an Image J (NIH). For the intensity of the band obtained from Streptavidin blot, a palmitoylation inhibitory activity was analyzed based on the control group (DMSO). The normalization of each sample was performed using an anti-GST (91G1) (cell signaling) antibody.

Row | SMILES | inhibition at 5 µM [2] | inhibition at 0.2 µM [1]
1 | C=CC(=O)Nc1cnc2c(c1)c(C)nn2Cc1cccc(C(F)(F)F)c1 [Compound 56, N-(3-methyl-1-(3-(trifluoromethyl)benzyl)-1H-pyrazolo[3,4-b]pyridin-5-yl)acrylamide] | < 40% | > 50%
2 | C=CC(=O)Nc1cnc2c(c1)c(C)cn2Cc1ccc(C(F)(F)F)s1 [Compound 63, N-(3-methyl-1-((5-(trifluoromethyl)thiophen-2-yl)methyl)-1H-pyrrolo[2,3-b]pyridin-5-yl)acrylamide] | 40 to 80% | 30 to 50%
3 | C=CC(=O)Nc1cnc2c(c1)c(C)cn2Cc1ccc(C(F)F)cc1 [Compound 71, N-(1-(4-(difluoromethyl)benzyl)-3-methyl-1H-pyrrolo[2,3-b]pyridin-5-yl)acrylamide] | < 40% | 30 to 50%
4 | C=CC(=O)Nc1cnc2c(c1)c(C)nn2-c1ccc(C(F)(F)F)c(Cl)c1 [Compound 72, N-(1-(3-chloro-4-(trifluoromethyl)phenyl)-3-methyl-1H-pyrazolo[3,4-b]pyridin-5-yl)acrylamide] | 40 to 80% | 30 to 50%
5 | C=CC(=O)Nc1cnc2c(c1)c(C)nn2-c1cccc(OC)c1 [Compound 73, N-(1-(3-methoxyphenyl)-3-methyl-1H-pyrazolo[3,4-b]pyridin-5-yl)acrylamide] | < 40% | < 30%
6 | C=CC(=O)Nc1cnc2c(c1)c(C)nn2-c1ccc(C(F)(F)F)c(C)c1 [Compound 74, N-(3-methyl-1-(3-methyl-4-(trifluoromethyl)phenyl)-1H-pyrazolo[3,4-b]pyridin-5-yl)acrylamide] | 40 to 80% | > 50%
7 | C=CC(=O)Nc1cnc2c(c1)c(C)nn2-c1cc(F)cc(F)c1 [Compound 76, N-(1-(3,5-difluorophenyl)-3-methyl-1H-pyrazolo[3,4-b]pyridin-5-yl)acrylamide] | 40 to 80% | 30 to 50%
8 | C=CC(=O)Nc1cnc2c(c1)c(C)nn2-c1ccc(OCC(C)C)cc1 [Compound 78, N-(1-(4-isobutoxyphenyl)-3-methyl-1H-pyrazolo[3,4-b]pyridin-5-yl)acrylamide] | 40 to 80% | < 30%
9 | C=CC(=O)Nc1cnc2c(c1)c(C)nn2-c1ccc(C(C)(C)C)cc1 [Compound 79, N-(1-(4-(tert-butyl)phenyl)-3-methyl-1H-pyrazolo[3,4-b]pyridin-5-yl)acrylamide] | 40 to 80% | 30 to 50%
10 | C=CC(=O)Nc1cnc2c(c1)c(C)nn2-c1ccccc1C(F)(F)F [Compound 82, N-(3-methyl-1-(2-(trifluoromethyl)phenyl)-1H-pyrazolo[3,4-b]pyridin-5-yl)acrylamide] | < 40% | < 30%
11 | C=CC(=O)Nc1cnc2c(c1)c(C)nn2-c1ccc(C(F)(F)F)c(O)c1 [Compound 87, N-(1-(3-hydroxy-4-(trifluoromethyl)phenyl)-3-methyl-1H-pyrazolo[3,4-b]pyridin-5-yl)acrylamide] | 40 to 80% | < 30%
12 | CC=CC(=O)Nc1cnc2c(c1)c(C)nn2-c1ccc(C(F)(F)F)cc1 [Compound 88, N-(3-methyl-1-(4-(trifluoromethyl)phenyl)-1H-pyrazolo[3,4-b]pyridin-5-yl)but-2-enamide] | 40 to 80% | 30 to 50%
13 | C=CC(=O)Nc1cnc2c(c1)c(C)nn2-c1ccc(C(F)(F)F)s1 [Compound 89, N-(3-methyl-1-(5-(trifluoromethyl)thiophen-2-yl)-1H-pyrazolo[3,4-b]pyridin-5-yl)acrylamide] | 40 to 80% | > 50%

More lines, main results first:

Row | inhibition at 5 µM [2] | SMILES | inhibition at 0.2 µM [1]
14 | 40 to 80% | C=CC(=O)Nc1cnc2c(c1)c(C)cn2C1CCCCC1 [Compound 57, N-(1-cyclohexyl-3-methyl-1H-pyrrolo[2,3-b]pyridin-5-yl)acrylamide] | < 30%
15 | > 80% | C=CC(=O)Nc1cnc2c(c1)c(C)cn2-c1ccc(OC(F)(F)F)cc1 [Compound 58, N-(3-methyl-1-(4-(trifluoromethoxy)phenyl)-1H-pyrrolo[2,3-b]pyridin-5-yl)acrylamide] | < 30%
16 | > 80% | C=CC(=O)Nc1cnc2c(c1)c(C)cn2-c1ccc(C(F)(F)F)c(OC)c1 [Compound 59, N-(1-(3-methoxy-4-(trifluoromethyl)phenyl)-3-methyl-1H-pyrrolo[2,3-b]pyridin-5-yl)acrylamide] | 30 to 50%
17 | 40 to 80% | C=CC(=O)Nc1cnc2c(c1)c(C)nn2Cc1ccc(C(C)(C)C)cc1 [Compound 60, N-(1-(4-(tert-butyl)benzyl)-3-methyl-1H-pyrazolo[3,4-b]pyridin-5-yl)acrylamide] | < 30%
18 | < 40% | C=CC(=O)Nc1cnc2c(c1)c(C)nn2Cc1ccc(C(F)(F)F)c(OC)c1 [Compound 61, N-(1-(3-methoxy-4-(trifluoromethyl)benzyl)-3-methyl-1H-pyrazolo[3,4-b]pyridin-5-yl)acrylamide] | > 50%
19 | 40 to 80% | C=CC(=O)Nc1cnc2c(c1)c(C)nn2Cc1ccc(C(F)(F)F)s1 [Compound 62, N-(3-methyl-1-((5-(trifluoromethyl)thiophen-2-yl)methyl)-1H-pyrazolo[3,4-b]pyridin-5-yl)acrylamide] | 30 to 50%
20 | 40 to 80% | C=CC(=O)Nc1cnc2c(c1)c(C)nn2-c1ccc(C(F)(F)F)c(OC)c1 [Compound 64, N-(1-(3-methoxy-4-(trifluoromethyl)phenyl)-3-methyl-1H-pyrazolo[3,4-b]pyridin-5-yl)acrylamide] | > 50%
21 | < 40% | C=CC(=O)Nc1cnc2c(c1)c(C)nn2Cc1ccc(C(F)F)cc1 [Compound 67, N-(1-(4-(difluoromethyl)benzyl)-3-methyl-1H-pyrazolo[3,4-b]pyridin-5-yl)acrylamide] | 30 to 50%
22 | 40 to 80% | C=CC(=O)Nc1cnc2c(c1)c(C)nn2C1=CCC(C(F)(F)F)CC1 (stereo not drawn) [Compound 68, N-(3-methyl-1-(4-(trifluoromethyl)cyclohex-1-en-1-yl)-1H-pyrazolo[3,4-b]pyridin-5-yl)acrylamide] | > 50%
23 | 40 to 80% | C=CC(=O)Nc1cnc2c(c1)c(C)nn2-c1ccc(C(F)F)cc1 [Compound 69, N-(1-(4-(difluoromethyl)phenyl)-3-methyl-1H-pyrazolo[3,4-b]pyridin-5-yl)acrylamide] | 30 to 50%
24 | < 40% | C=CC(=O)Nc1cnc2c(c1)c(C)nn2-c1ccc(F)cc1 [Compound 70, N-(1-(4-fluorophenyl)-3-methyl-1H-pyrazolo[3,4-b]pyridin-5-yl)acrylamide] | 30 to 50%
25 | 40 to 80% | C=CC(=O)Nc1cnc2c(c1)c(C)nn2-c1ccccc1C [Compound 75, N-(3-methyl-1-(o-tolyl)-1H-pyrazolo[3,4-b]pyridin-5-yl)acrylamide] | < 30%
26 | 40 to 80% | C=CC(=O)Nc1cnc2c(c1)c(C)nn2-c1ccc(C(C)CC)cc1 (stereo not drawn) [Compound 80, N-(1-(4-(sec-butyl)phenyl)-3-methyl-1H-pyrazolo[3,4-b]pyridin-5-yl)acrylamide] | 30 to 50%
27 | < 40% | C=CC(=O)Nc1cnc2c(c1)c(C)nn2-c1ccccc1OC [Compound 81, N-(1-(2-methoxyphenyl)-3-methyl-1H-pyrazolo[3,4-b]pyridin-5-yl)acrylamide] | < 30%
28 | < 40% | C=CC(=O)Nc1cnc2c(c1)c(C)nn2-c1ccccc1Br [Compound 83, N-(1-(2-bromophenyl)-3-methyl-1H-pyrazolo[3,4-b]pyridin-5-yl)acrylamide] | < 30%
29 | < 40% | C=CC(=O)Nc1cnc2c(c1)c(C)nn2-c1cc(OC)cc(OC)c1 [Compound 84, N-(1-(3,5-dimethoxyphenyl)-3-methyl-1H-pyrazolo[3,4-b]pyridin-5-yl)acrylamide] | < 30%
30 | > 80% | C=CS(=O)(=O)Nc1cnc2c(c1)c(C)nn2-c1ccc(C(F)(F)F)cc1 [Compound 85, N-(3-methyl-1-(4-(trifluoromethyl)phenyl)-1H-pyrazolo[3,4-b]pyridin-5-yl)ethenesulfonamide] | > 50%
